# Test system: not given
# Experiment: not given
# Settings: PAMPA
row,SMILES,CNS prediction
1,"O=c1c(O)c(-c2ccc(O)c(O)c2)oc2cc(O)cc(O)c12 [quercetin, reference compound]",CNS-

# Test system: AChE
# Experiment: not given
# Parameters: method as in PMID 25924599
# Settings: first series; cited from earlier work
row,SMILES,IC50
1,O=C1C=C(NC[C@@H]2CCCN3CCCC[C@H]23)C(=O)c2ccccc21 [I],5.8 µM
2,O=C1C(Cl)=C(NCCCC2CCCN3CCCCC23)C(=O)c2ccccc21 (stereo not shown) [VI],0.011 µM
3,O=C1c2ccccc2C(=O)c2c(SC[C@@H]3CCCN4CCCC[C@H]34)cccc21 [XIV],3.8 µM
4,O=C1c2ccccc2C(=O)c2c(NCC[C@@H]3CCCN4CCCC[C@H]34)cccc21 [X],0.84 µM

# Test system: BChE
# Experiment: not given
# Parameters: method as in PMID 25924599
# Settings: first series; cited from earlier work
row,SMILES,IC50
1,O=C1C(Cl)=C(NCCCC2CCCN3CCCCC23)C(=O)c2ccccc21 (stereo not shown) [VI],12 µM
2,O=C1c2ccccc2C(=O)c2c(NCCCSC[C@@H]3CCCN4CCCC[C@H]34)cccc21 [XII],1.1 µM
3,O=C1c2ccccc2C(=O)c2c(SC[C@@H]3CCCN4CCCC[C@H]34)cccc21 [XIV],3.4 µM

# Test system: not listed separately
# Experiment: in vitro
# Settings: PAMPA, pH 7.4
SMILES,Papp at 16 h,Papp
CN(C)CCCN1c2ccccc2Sc2ccc(Cl)cc21 [Chlorpromazine],7.2 ×10⁻⁶ cm/s,–
Clc1cccc(Cl)c1N=C1NCCN1 [Clonidine],5.6 ×10⁻⁶ cm/s,–
NCCc1ccc(O)c(O)c1 [Dopamine],0.6 ×10⁻⁶ cm/s,–
CCn1cc(C(=O)O)c(=O)c2cc(F)c(N3CCNC(C)C3)c(F)c21 (stereo not shown) [Lomefloxacin],1.5 ×10⁻⁶ cm/s,–
CCn1cc(C(=O)O)c(=O)c2cc(F)c(N3CCNCC3)cc21 [Norfloxacin],0.3 ×10⁻⁶ cm/s,–
CN1C(C(=O)Nc2ccccn2)=C(O)c2ccccc2S1(=O)=O [Piroxicam],–,1.6 ×10⁻⁶ cm/s
CC(=O)[C@H]1CC[C@H]2[C@@H]3CCC4=CC(=O)CC[C@]4(C)[C@H]3CC[C@]12C [Progesterone],11.7 ×10⁻⁶ cm/s,–
"O=c1c(O)c(-c2ccc(O)c(O)c2)oc2cc(O)cc(O)c12 [quercetin, reference compound]",0.14 ± 0.06 ×10⁻⁶ cm/s,–
